# Experimental data from patent US10065951B2, “Small molecule transcription modulators of bromodomains” (Icahn School of Medicine at Mount Sinai, priority 2014, dated 2018).
# Experiments:
# MOG-induced EAE = MOG-induced EAE in mice, treatment from day 4 after immunization; assay type: in vivo, mouse
# Method: FIG. 12A illustrates a score graph of clinical severity of EAE in mice injected with MOG as described herein. Each group was composed of 6-9 mice. Below the score, the graphs show the levels of myelin transcripts detected at the times denoted by asterisks in the score graph. 12B provides transcript levels detected in the spinal cord of mice harvested at the same time points as the asterisks in 12A.
# An in vivo mouse model study was conducted to determine how treatment with 4c would modulate oligodendrocyte progenitor differentiation and impact repair after demyelination. In a first series of experiments, a model of immune-mediated demyelination was used. EAE was induced by subcutaneous injection of 300 μg of MOG35-55 peptide thoroughly emulsified in complete Freund's adjuvant containing heat-inactivated Mycobacterium tuberculosis in the mouse flank on day 0 and 7. Pertussis toxin (500 ng) was intraperitoneally injected on day 0 and 2. After immunization mice were observed and weighed daily and scored for severity of symptoms as follows: 0, no detectable symptoms; 1, loss of tail tone; 2, hindlimb weakness or abnormal gait; 3, complete paralysis of the hindlimbs; 4, complete hindlimb and forelimb paralysis; 5, death. A minimum of 6-9 animals received daily intraperitoneal injections of 4c, starting from day 4 after immunization with the MOG peptide (FIG. 12A) and weight and clinical score were recorded daily. Disease onset was similar in mice treated with 4c compared to DMSO-injected controls.
# [1] = system: oligodendrocyte progenitor cultures; assay: Microarray and qRT-PCR gene expression in oligodendrocyte progenitor cultures; assay type: cell-based, rat
# Method: Raw values were normalized to Gapdh levels and expressed relative to the levels detected in cells kept for 1 day in ODM. A housekeeping gene (act) was used as a control.
# Total RNA were isolated from the cells using Trizol® Reagent following manufacturer's instruction and cleaned up using RNeasy Mini kit (Qiagen, Hilden, Germany). 0.5-1 μg of total RNA was used in 20 μl of reverse transcription (RT) reaction, using SuperScript RT-PCR kit (Invitrogen, Carlsbad, Calif.). Quantitative RT-PCR was performed using Applied Biosystems SYBR green PCR master mix in 384-well plate in ABI 7900HT Sequence Detection PCR System. The PCR was performed in a 20 μl reaction mixture containing 0.2 μl cDNA as template and 100 nM specific oligonucleotide primer pairs using program denaturation at 95° C. for 15 s; annealing and extension at 60° C. for 1 min for 40 cycles. Melting curve of each sample was measured to ensure the specificity of the products. Data were normalized to the internal control GAPDH and analyzed using Pfaffl ΔΔCt method.
# To determine how 4c exerts the pro-differentiative effect at 10 nM on the lineage progression of oligodendrocyte progenitors when the global histone acetylation is unchanged, a possibility that the compound would primarily affect CBP binding to target genes was investigated. To test this hypothesis, a microarray analysis was performed of cultures either untreated or treated with 10 nM 4c for 1 or 4 days.
# [2] = system: CBP occupancy at promoters (Lmnb1 transcription start site); assay: Chromatin immunoprecipitation (ChIP) of CBP and H3K18ac at gene promoters; assay type: cell-based; settings: 10 nM, one day
# Method: FIG. 9 illustrates the ChIP analysis of samples isolated from cells cultured as previously described and then precipitated using antibodies specific for CBP, and for H3K18ac. A mock ChIP (No Antibody) was used as negative control. The amount of chromatin recovered at the Lmnb1 transcription start site was measured by qPCR and expressed as percentage of input for each sample. Error bars are s.e.m. of three independent experiments (*p<0.05, **p<0.01 two-tail t test).
# Oligodendrocyte progenitors (4×10^6) were crosslinked in 1% formaldehyde, lysed in nuclear lysis buffer (50 mM Tris-HCL (pH 8.0), 10 mM EDTA, 1% SDS, Protease Inhibitors (Roche) and PMSF) and sonicated using a Bioruptor (Diagenode) sonicator to produce chromatin with an average length of 500 base pairs. Chromatin was aliquoted and immunopreciptiated using protein A magnetic beads (Dynabeads-Invitrogen 100.01D) coated with 2 μg of antibodies to CBP (santa cruz sc-369), H3-K9ac (abcam ab4441), H3-K9ac and K14 (millipore 06-599), H3-K18ac (abcam ab1191). A mock immunopreciptitation was set-up as a control (No antibody). Immunoprecipitations were carried out overnight. […]
# Quantitative PCR was performed using primers to detect the transcriptional start site of the Lmnb1 promoter; forward 5′-[…] […]
# [3] = 0.24 μg/kg (10 nM), daily intraperitoneal from day 4
# [4] = 2.4 μg/kg (100 nM), daily intraperitoneal from day 4
# [5] = 10 nM, four days of treatment, microarray
# [6] = 10 nM, one day of treatment, microarray
smiles,measurement,setting,value
"CC(=O)NCCCCn1c2c(c3ccccc31)C(=O)NCC2 [4c, 2,3,4,5-tetrahydro-5-(4′-acetamidobutyl)-1H-pyrido-[4,3-b]indol-1-one]",Average score,MOG-induced EAE; [3],2.25
same,Maximum score,MOG-induced EAE; [3],2.5
same,Number of animals with clinical signs,MOG-induced EAE; [3],4 out of 7
same,Number of mice with score <0.5,MOG-induced EAE; [3],1/4
same,recovery period compared to vehicle controls,MOG-induced EAE; 2.4 μg/Kg,dramatically accelerated
same,myelin gene transcripts in spinal cord during recovery,"MOG-induced EAE; 2.4 μg/Kg, similar levels of cytokines",significant increase of myelin gene transcripts
same,Average score,MOG-induced EAE; [4],2.25
same,Number of animals with clinical signs,MOG-induced EAE; [4],5 out of 7
same,Number of mice with score <0.5,MOG-induced EAE; [4],4/5
same,disease onset compared to DMSO-injected controls,MOG-induced EAE; daily intraperitoneal from day 4,similar
same,disease severity at day 18,"MOG-induced EAE; day 18, vs vehicle-injected controls",less severe disease
same,number of genes down-regulated,[1]; [5],536 genes
same,number of genes up-regulated,[1]; [5],57 genes
same,number of genes decreased more than 1.2 fold,[1]; [6],832 genes
same,number of genes increased more than 1.2 fold,[1]; [6],169 genes
same,expression of Ctnnb1 and Lmnb1,"[1]; qRT-PCR, 4c-treated cells",reduced expression
same,acetylation of histone H3 at lysine 18 (H3K18ac) at promoters,[2],but not the acetylation of histone H3 at lysine 18 (H3K18ac) was decreased
same,association of CBP with promoters,[2],decreased
